Results: PMC9118553, “In Vivo Bioconcentration of 10 Anionic Surfactants in Rainbow Trout Explained by In Vitro Data on Partitioning and S9 Clearance” (Environmental Science & Technology, 2022)
Like-named read-outs stand apart in the source and are kept apart here.

Tests used:
[1] = In vivo bioconcentration experiment with a mixture of anionic surfactants, flow-through aquaria, 10 °C, pH 7.8; design: species or system rainbow trout; conditions: rainbow trout, whole fish homogenate, other: waterborne exposure in flow-through aquaria; for k el: read-out: Elimination rate constant kT (converted)
Outline: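 Juvenile rainbow trout exposed to a 10-surfactant mixture for 4 days, then 7-day depuration, in flow-through aquaria at 10 °C, pH 7.8. Whole-fish homogenates and water analysed by LC-MS/MS against BEHP internal standard. kU, kT and BCF (=kU/kT) estimated by joint Bayesian model including water-concentration uncertainty.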

rainbow trout = rainbow trout carcass; cited from earlier work
[2] = design: method as in REACH dossier; conditions: method as noted in the cell (shake flask, solubility ratio, HPLC, BCFBAF, pH); ref REACH dossier; cited from earlier work
[3] = ref REACH dossier; cited from earlier work

For `CCCCC(CC)COC(=O)CC(C(=O)OCC(CC)CCCC)S(=O)(=O)O` (centres unmarked) [DOSS, bis(2-ethylhexyl)sulfosuccinate], the k el ([1]; 26 μg L^–1, pH 7.8, determined using nominal concentrations in water) was 1.56e-05 s⁻¹, the concentration at 97 h ([1]; 26 μg L^–1, pH 7.8, elimination phase, 97 h, individual fish) was 57 ng/g and the concentration at 98 h ([1]; 26 μg L^–1, pH 7.8, elimination phase, 98 h, individual fish) was 47 ng/g. It also gave a concentration at 103 h ([1]; 26 μg L^–1, pH 7.8, elimination phase, 103 h, individual fish) of 35 ng/g, a concentration at 128 h ([1]; 26 μg L^–1, pH 7.8, elimination phase, 128 h, individual fish) of 13.9 ng/g and a concentration at 2 h ([1]; 26 μg L^–1, pH 7.8, exposure phase, 2 h, individual fish) of 8.5 ng/g. For the same molecule, the concentration at 3 h ([1]; 26 μg L^–1, pH 7.8, exposure phase, 3 h, individual fish) was 14.9 ng/g, the concentration at 6 h ([1]; 26 μg L^–1, pH 7.8, exposure phase, 6 h, individual fish) was 36 ng/g and the concentration at 24 h ([1]; 26 μg L^–1, pH 7.8, exposure phase, 24 h, individual fish) was 66 ng/g. It also gave a concentration at 48 h ([1]; 26 μg L^–1, pH 7.8, exposure phase, 48 h, individual fish) of 48 ng/g, a concentration at 72 h ([1]; 26 μg L^–1, pH 7.8, exposure phase, 72 h, individual fish) of 50 ng/g and a concentration at 96 h ([1]; 26 μg L^–1, pH 7.8, exposure phase, 96 h, individual fish) of 84 ng/g. For the same molecule, the k el ([1]; 26 μg L^–1, pH 7.8, from measured concentrations in water, Bayesian estimate, 95% credible interval in brackets) was 1.75e-05 s⁻¹, the k el ([1]; pH 7.8, measured concentrations in water, simpler estimation method (Text S3), 95% confidence intervals in brackets) was 1.78e-05 s⁻¹ and the BCF (rainbow trout) was 3.78 L kg^–1. The LogKow [2] was 2 and the “Degradation information ~28d-sludge test (% degradable)” value [3] was 91.2-100%.
